Measurements: patent US6355799B1, “Substituted benzene compounds, process for their preparation, and herbicidal and defoliant compositions containing them” (ISK Americas Incorporated, priority 1997, dated 2002)

Assays:
Format in all cases: in vivo
[1] = system: upland rice (Oryza sp., var. Tebonnet, RICE); assay: Post-emerge test, crop safety; conditions: post-emerge, 14 days after application, rating scale 0-100
In short: (§1)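 Each test used a mechanized track sprayer delivering 187 l/ha of acetone solution at 15–1000 g ai/ha. Post-emerge foliage at 2–3 leaves was treated with added 0.25% v/v non-ionic surfactant and bottom-watered only. Injury was assessed on day 14, where 100 means total kill.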

[2] = system: field corn (Zea mays L., var. Dekalb 535, CORN); assay: Post-emerge test, crop safety; conditions: post-emerge, 14 days after application, rating scale 0-100
In short: as §1

[3] = system: sicklepod (Cassia obtusifolia, CASOB); assay: Post-emerge test, greenhouse herbicide activity screening; conditions: post-emerge, 14 days after application, rating scale 0-100
Source text: (§2) A standard greenhouse herbicide activity screening system was used to evaluate the herbicidal efficacy and crop safety of these test compounds. Seven broadleaf weed species including redroot pigweed (Amaranthus retroflexus, AMARE, velvetleaf (Abutilon theophrasti, ABUTH), sicklepod (Cassia obtusifolia, CASOB), ivyleaf morningglory (Ipomoea hederacea, IPOHE), lambsquarters (Chenopodium album, CHEAL), common ragweed (Ambrosia artemisizfolia L., AMBEL), and cocklebur (Xanthium strumarium, XANST) were used as test species. Four grass weed species including green foxtail (Setaria viridis, SETVI), barnyardgrass (Echinochloa crus-galli, ECHCG), johnsongrass (Sorghum halepense, SORHA), and large crabgrass (Digitaria sanguinalis, DIGSA) were also used. In addition, three crop species, field corn (Zea mays L., var. Dekalb 535, CORN), soybean (Glycine max L., var. Pella 86, SOY), and is upland rice (Oryza sp., var. Tebonnet, RICE) were included.
(§3) All plants were grown in 10 cm square plastic pots which were filled with a sandy loam soil mix. For pre-emerge tests, seeds were planted one day prior to application of the test compounds. For post-emerge tests, seeds were planted 8-21 days prior to the test to allow emergence and good foliage development prior to application of the test substances. At the time of the post-emerge application, plants of all species were usually at the 2-3 leaf stage of development.
(§4) All test compounds Were dissolved in acetone and applied to the test units in a volume of 187 l /ha. Test materials were applied at rates ranging from 15 g ai/ha to 1000 g ai/ha using a track sprayer equipped with a TJ8001E even flow flat fan spray nozzle. Plants were arranged on a shelf so that the top of the canopy (post-emerge) or top of the soil surface (pre-emerge) was 40-45 cm below the nozzle. Pressurized air was used to force the test solution through the nozzle as it was mechanically advanced (via electrically driven chain drive) over the top of all test plants/pots. This application simulates a typical commercial field herbicide application.
(§5) In the post-emerge test, a commercial non-ionic surfactant was also included (0.25% v/v) to enhance wetting of the leaf surfaces of target plants. Immediately after application, test units of the pre-emerge applications were watered at the soil surface to incorporate the test materials. Subsequently, these test units were bottom-watered. Post-emerge test units were always bottom-watered.
(§6) At 14 days after application of the test materials, phytotoxicity ratings were recorded. A rating scale of 0-100 was used as previously described in Research Methods in Weed Science, 2nd edition, B. Truelove, Ed., Southern Weed Science Society, Auburn University, Auburn, Ala. 1977. Briefly, “0” corresponds to no damage and “100” corresponds to complete death of all plants in the test unit. This scale was used both to determine efficacy against weed species and damage to crop species. Herbicide activity data for various compounds of this invention, which are shown by compound No. in Tables 1-8, are shown in Tables 11 and 12.

[4] = system: ivyleaf morningglory (Ipomoea hederacea, IPOHE); assay: as above; conditions: post-emerge, 14 days after application, rating scale 0-100
Source text: as §2, §3, §4, §5, §6

[5] = system: redroot pigweed (Amaranthus retroflexus, AMARE); assay: as above; conditions: post-emerge, 14 days after application
Source text: as §2, §3, §4, §5, §6

[6] = system: velvetleaf (Abutilon theophrasti, ABUTH); assay: as above; conditions: post-emerge, 14 days after application, rating scale 0-100
Source text: as §2, §3, §4, §5, §6

[7] = system: lambsquarters (Chenopodium album, CHEAL); assay: as above; conditions: post-emerge, 14 days after application, rating scale 0-100
Source text: as §2, §3, §4, §5, §6

[8] = system: barnyardgrass (Echinochloa crus-galli, ECHCG); assay: as above; conditions: post-emerge, 14 days after application, rating scale 0-100
Source text: as §2, §3, §4, §5, §6

[9] = system: large crabgrass (Digitaria sanguinalis, DIGSA); assay: as above; conditions: post-emerge, 14 days after application, rating scale 0-100
Source text: as §2, §3, §4, §5, §6

[10] = system: green foxtail (Setaria viridis, SETVI); assay: as above; conditions: post-emerge, 14 days after application, rating scale 0-100
Source text: as §2, §3, §4, §5, §6

[11] = system: upland rice (Oryza sp., var. Tebonnet, RICE); assay: Pre-emerge test, crop safety; conditions: crop damage rating 0-100, 14 days after application
In short: (§7)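 Fourteen days after spraying, crop and weed injury was graded visually from 0, no effect, to 100, every plant dead. Test substances were dissolved in acetone and applied at 15–1000 g ai/ha with a flat-fan nozzle. Application was either pre-emergence, one day after sowing, or post-emergence at the 2–3 leaf stage.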

[12] = system: field corn (Zea mays L., var. Dekalb 535, CORN); assay: Pre-emerge test, crop safety; conditions: crop damage rating 0-100, 14 days after application
In short: as §7

[13] = system: sicklepod (Cassia obtusifolia, CASOB); assay: Pre-emerge test, greenhouse herbicide activity screening; conditions: phytotoxicity rating 0-100, 14 days after application
Source text: as §2, §3, §4, §5, §6

[14] = system: ivyleaf morningglory (Ipomoea hederacea, IPOHE); assay: as above; conditions: phytotoxicity rating 0-100, 14 days after application
Source text: as §2, §3, §4, §5, §6

[15] = system: velvetleaf (Abutilon theophrasti, ABUTH); assay: as above; conditions: phytotoxicity rating 0-100, 14 days after application
Source text: as §2, §3, §4, §5, §6

[16] = system: lambsquarters (Chenopodium album, CHEAL); assay: as above; conditions: phytotoxicity rating 0-100, 14 days after application
Source text: as §2, §3, §4, §5, §6

[17] = system: barnyardgrass (Echinochloa crus-galli, ECHCG); assay: as above; conditions: phytotoxicity rating 0-100, 14 days after application
Source text: as §2, §3, §4, §5, §6

[18] = system: large crabgrass (Digitaria sanguinalis, DIGSA); assay: as above; conditions: phytotoxicity rating 0-100, 14 days after application
Source text: as §2, §3, §4, §5, §6

[19] = system: green foxtail (Setaria viridis, SETVI); assay: as above; conditions: phytotoxicity rating 0-100, 14 days after application
Source text: as §2, §3, §4, §5, §6

[20] = system: redroot pigweed (Amaranthus retroflexus, AMARE); assay: as above; conditions: phytotoxicity rating 0-100, 14 days after application
In short: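 Rating: 0–100 visual injury, 14 DAA. Application: acetone, 187 l/ha, 15–1000 g ai/ha, flat-fan track sprayer with nozzle 40–45 cm above soil or canopy. Post-emerge runs used 0.25% v/v surfactant on 2–3 leaf plants.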

COc1c(Cl)cc(F)c(-n2c(=O)cc(C(F)(F)F)n(C)c2=O)c1NC(=O)OCc1ccc(C(C)C)cc1 [4-42]
40: phytotoxicity rating IPOHE ([4]; 63 g ai/ha) | Pre-emerge Herbicidal Activity IPOHE ([14]; 250 g ai/ha) | Pre-emerge Herbicidal Activity CHEAL ([16]; 63 g ai/ha) | Pre-emerge Herbicidal Activity ECHCG ([17]; 250 g ai/ha)
10: phytotoxicity rating ECHCG ([8]; 250 g ai/ha) | Pre-emerge Herbicidal Activity DIGSA ([18]; 63 g ai/ha)
30: phytotoxicity rating IPOHE ([4]; 250 g ai/ha) | Pre-emerge Herbicidal Activity SETVI ([19]; 63 g ai/ha) | Pre-emerge Herbicidal Activity AMARE ([20]; 63 g ai/ha)
60: Pre-emerge Herbicidal Activity ABUTH ([15]; 63 g ai/ha) | Pre-emerge Herbicidal Activity DIGSA ([18]; 250 g ai/ha)
90: phytotoxicity rating CHEAL ([7]; 250 g ai/ha) | Pre-emerge Herbicidal Activity AMARE ([20]; 250 g ai/ha)
0: phytotoxicity rating RICE (crop damage) ([1]; 63 g ai/ha) | phytotoxicity rating RICE (crop damage) ([1]; 250 g ai/ha) | phytotoxicity rating CORN (crop damage) ([2]; 63 g ai/ha) | phytotoxicity rating CORN (crop damage) ([2]; 250 g ai/ha) | phytotoxicity rating CASOB ([3]; 63 g ai/ha) | phytotoxicity rating CASOB ([3]; 250 g ai/ha) | phytotoxicity rating ECHCG ([8]; 63 g ai/ha) | phytotoxicity rating DIGSA ([9]; 63 g ai/ha) | phytotoxicity rating DIGSA ([9]; 250 g ai/ha) | phytotoxicity rating SETVI ([10]; 63 g ai/ha) | phytotoxicity rating SETVI ([10]; 250 g ai/ha) | Pre-emerge Herbicidal Activity RICE ([11]; 63 g ai/ha) | Pre-emerge Herbicidal Activity RICE ([11]; 250 g ai/ha) | Pre-emerge Herbicidal Activity CORN ([12]; 63 g ai/ha) | Pre-emerge Herbicidal Activity CORN ([12]; 250 g ai/ha) | Pre-emerge Herbicidal Activity CASOB ([13]; 63 g ai/ha) | Pre-emerge Herbicidal Activity IPOHE ([14]; 63 g ai/ha) | Pre-emerge Herbicidal Activity ECHCG ([17]; 63 g ai/ha)
80: phytotoxicity rating CHEAL ([7]; 63 g ai/ha)
100: phytotoxicity rating AMARE ([5]; 250 g ai/ha, rating scale 0-100) | phytotoxicity rating ABUTH ([6]; 63 g ai/ha) | phytotoxicity rating ABUTH ([6]; 250 g ai/ha) | Pre-emerge Herbicidal Activity CASOB ([13]; 250 g ai/ha) | Pre-emerge Herbicidal Activity ABUTH ([15]; 250 g ai/ha) | Pre-emerge Herbicidal Activity CHEAL ([16]; 250 g ai/ha) | Pre-emerge Herbicidal Activity SETVI ([19]; 250 g ai/ha)
75: phytotoxicity rating AMARE ([5]; 63 g ai/ha, rating scale 0-100 (0 no damage, 100 complete death))
